Starred links: 1 amine or outer side, 2 acyl side, 3 side chain; linkers in the order of their positions; H or OH if unused. Non-standard residues stand in square brackets, D forms with d. Residues, ends and D or L forms follow the SMILES beside them. Groups on a side chain read outwards from the residue. *: point of attachment. X1 = O=C(O)CCCCCCCCCCCCCCCCCCC(=O)N1CCN(CC(=O)*)CC1; C20 diacid = O=C(O)CCCCCCCCCCCCCCCCCCC(=O)*; γGlu = O=C(O)[C@H](CCC(=O)[*:2])N[*:1]; AEEA = NCCOCCOCC(=O)O; Aib = CC(C)(N)C(=O)O
Columns and labels:
[1] = molecular target: human GLP-1 receptor (GLP-1R) (Homo sapiens, UniProt P43220); assay: Activity assay at human GLP-1 receptor, cAMP induction (AlphaScreen), Example 3
human GIP R = molecular target: T1, human GIP R (Homo sapiens, UniProt P48546); assay: cell-based
T1 sequence (P48546 22-466): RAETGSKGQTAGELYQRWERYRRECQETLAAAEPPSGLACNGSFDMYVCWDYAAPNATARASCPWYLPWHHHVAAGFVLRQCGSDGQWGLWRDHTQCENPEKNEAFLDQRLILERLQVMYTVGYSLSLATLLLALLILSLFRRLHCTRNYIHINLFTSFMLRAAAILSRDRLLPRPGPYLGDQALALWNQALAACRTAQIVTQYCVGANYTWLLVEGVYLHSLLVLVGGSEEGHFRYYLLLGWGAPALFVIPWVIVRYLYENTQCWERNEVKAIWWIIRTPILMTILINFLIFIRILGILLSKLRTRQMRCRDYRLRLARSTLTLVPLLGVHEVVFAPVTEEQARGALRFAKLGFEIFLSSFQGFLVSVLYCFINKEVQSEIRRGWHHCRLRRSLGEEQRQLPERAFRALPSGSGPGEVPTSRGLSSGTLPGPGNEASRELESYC

[2] = molecular target: T2, human GIP receptor (GIP R) (Homo sapiens, UniProt P48546); assay: Activity assay at human GIP receptor, cAMP induction (AlphaScreen), Example 3
T2 sequence (P48546 22-466): T1 sequence (P48546 22-466)

human GLP-1 receptor (GLP-1R), sequence (P43220 24-463): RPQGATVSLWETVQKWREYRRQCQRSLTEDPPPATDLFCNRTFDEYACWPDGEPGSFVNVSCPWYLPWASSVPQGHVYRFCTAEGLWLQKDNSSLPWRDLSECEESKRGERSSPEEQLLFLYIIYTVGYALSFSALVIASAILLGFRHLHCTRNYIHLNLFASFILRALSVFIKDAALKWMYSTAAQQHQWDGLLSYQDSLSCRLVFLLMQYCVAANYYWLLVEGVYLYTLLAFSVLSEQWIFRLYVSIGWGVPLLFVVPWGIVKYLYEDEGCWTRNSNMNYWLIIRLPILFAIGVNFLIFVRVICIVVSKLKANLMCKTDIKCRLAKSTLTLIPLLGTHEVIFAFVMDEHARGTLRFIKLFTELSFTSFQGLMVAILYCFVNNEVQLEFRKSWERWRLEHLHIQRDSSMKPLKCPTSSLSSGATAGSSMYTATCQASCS

Compound	EC50 [1] [pM]	EC50 (human GIP R) [pM]	EC50 [2] [pM]
CC[C@H](C)[C@H](NC(=O)[C@H](CO)NC(=O)[C@H](Cc1ccc(O)cc1)NC(=O)[C@H](CC(=O)O)NC(=O)[C@H](CO)NC(=O)[C@@H](NC(=O)[C@H](Cc1ccccc1)NC(=O)[C@@H](NC(=O)CNC(=O)[C@H](CCC(=O)O)NC(=O)C(C)(C)NC(=O)[C@@H](N)Cc1ccc(O)cc1)[C@@H](C)O)[C@@H](C)CC)C(=O)N[C@@H](CCC(=O)O)C(=O)N[C@@H](CC(C)C)C(=O)N[C@@H](CC(=O)O)C(=O)N[C@@H](CCCCN)C(=O)N[C@@H](CCCCNC(=O)COCCOCCNC(=O)COCCOCCNC(=O)CC[C@H](NC(=O)CCCCCCCCCCCCCCCCCCC(=O)O)C(=O)O)C(=O)N[C@@H](Cc1c[nH]cn1)C(=O)N[C@@H](CCC(N)=O)C(=O)N[C@@H](CCC(N)=O)C(=O)N[C@@H](CC(=O)O)C(=O)N[C@@H](Cc1ccccc1)C(=O)N[C@H](C(=O)N[C@@H](CC(N)=O)C(=O)N[C@@H](Cc1ccc(O)cc1)C(=O)N[C@@H](CC(C)C)C(=O)N[C@@H](CC(C)C)C(=O)N[C@@H](C)C(=O)N[C@@H](CCC(N)=O)C(=O)NCC(=O)N1CCC[C@H]1C(=O)N[C@@H](CO)C(=O)N[C@@H](CO)C(=O)NCC(=O)N[C@@H](C)C(=O)N1CCC[C@H]1C(=O)N1CCC[C@H]1C(=O)N1CCC[C@H]1C(=O)N[C@@H](CO)C(N)=O)C(C)C [Compound 8] (H-Y[Aib]EGTFISDYSIELDKK([AEEA-AEEA-γGlu-C20 diacid])HQQDFVNYLLAQGPSSGAPPPS-NH2)	> 10000	9	–
CC[C@H](C)[C@H](NC(=O)[C@H](CO)NC(=O)[C@H](Cc1ccc(O)cc1)NC(=O)[C@H](CC(=O)O)NC(=O)[C@H](CO)NC(=O)[C@@H](NC(=O)[C@H](Cc1ccccc1)NC(=O)[C@@H](NC(=O)CNC(=O)[C@H](CCC(=O)O)NC(=O)C(C)(C)NC(=O)[C@@H](N)Cc1ccc(O)cc1)[C@@H](C)O)[C@@H](C)CC)C(=O)N[C@@H](CCC(=O)O)C(=O)N[C@@H](CC(C)C)C(=O)N[C@@H](CC(=O)O)C(=O)N[C@@H](CCCCN)C(=O)N[C@@H](CCCCNC(=O)COCCOCCNC(=O)COCCOCCNC(=O)CC[C@H](NC(=O)CCCCCCCCCCCCCCCCCCC(=O)O)C(=O)O)C(=O)N[C@@H](Cc1c[nH]cn1)C(=O)N[C@@H](CCC(N)=O)C(=O)N[C@@H](CCC(N)=O)C(=O)N[C@@H](CC(=O)O)C(=O)N[C@@H](Cc1ccccc1)C(=O)N[C@H](C(=O)N[C@@H](CC(N)=O)C(=O)N[C@@H](Cc1c[nH]c2ccccc12)C(=O)N[C@@H](CC(C)C)C(=O)N[C@@H](CC(C)C)C(=O)N[C@@H](C)C(=O)N[C@@H](CCC(N)=O)C(=O)NCC(=O)N1CCC[C@H]1C(=O)N[C@@H](CO)C(=O)N[C@@H](CO)C(=O)NCC(=O)N[C@@H](C)C(=O)N1CCC[C@H]1C(=O)N1CCC[C@H]1C(=O)N1CCC[C@H]1C(=O)N[C@@H](CO)C(N)=O)C(C)C [Compound 9] (H-Y[Aib]EGTFISDYSIELDKK([AEEA-AEEA-γGlu-C20 diacid])HQQDFVNWLLAQGPSSGAPPPS-NH2)	> 3000	8	9
CC[C@H](C)[C@H](NC(=O)[C@H](CO)NC(=O)[C@H](Cc1ccc(O)cc1)NC(=O)[C@H](CC(=O)O)NC(=O)[C@H](CO)NC(=O)[C@@H](NC(=O)[C@H](Cc1ccccc1)NC(=O)[C@@H](NC(=O)CNC(=O)[C@H](CCC(=O)O)NC(=O)C(C)(C)NC(=O)[C@@H](N)Cc1ccc(O)cc1)[C@@H](C)O)[C@@H](C)CC)C(=O)N[C@@H](CCC(=O)O)C(=O)N[C@@H](CC(C)C)C(=O)N[C@@H](CCC(=O)O)C(=O)N[C@@H](CCCCN)C(=O)N[C@@H](CCCCNC(=O)COCCOCCNC(=O)COCCOCCNC(=O)CC[C@H](NC(=O)CCCCCCCCCCCCCCCCCCC(=O)O)C(=O)O)C(=O)N[C@@H](C)C(=O)N[C@@H](C)C(=O)N[C@@H](CCCCN)C(=O)N[C@@H](CCC(=O)O)C(=O)N[C@@H](Cc1ccccc1)C(=O)N[C@H](C(=O)N[C@@H](CC(N)=O)C(=O)N[C@@H](Cc1c[nH]c2ccccc12)C(=O)N[C@@H](CC(C)C)C(=O)N[C@@H](CC(C)C)C(=O)N[C@@H](C)C(=O)N[C@@H](CCC(N)=O)C(=O)NCC(=O)N1CCC[C@H]1C(=O)N[C@@H](CO)C(=O)N[C@@H](CO)C(=O)NCC(=O)N[C@@H](C)C(=O)N1CCC[C@H]1C(=O)N1CCC[C@H]1C(=O)N1CCC[C@H]1C(=O)N[C@@H](CO)C(N)=O)C(C)C [Compound 11] (H-Y[Aib]EGTFISDYSIELEKK([AEEA-AEEA-γGlu-C20 diacid])AAKEFVNWLLAQGPSSGAPPPS-NH2)	> 3000	9	8
CC[C@H](C)[C@H](NC(=O)[C@H](CCCCN)NC(=O)[C@H](CCC(=O)O)NC(=O)[C@H](CC(C)C)NC(=O)[C@H](CCC(=O)O)NC(=O)[C@@H](NC(=O)[C@H](CO)NC(=O)[C@H](Cc1ccc(O)cc1)NC(=O)[C@H](CC(=O)O)NC(=O)[C@H](CO)NC(=O)[C@@H](NC(=O)[C@H](Cc1ccccc1)NC(=O)[C@@H](NC(=O)CNC(=O)[C@H](CCC(=O)O)NC(=O)C(C)(C)NC(=O)[C@@H](N)Cc1ccc(O)cc1)[C@@H](C)O)[C@@H](C)CC)[C@@H](C)CC)C(=O)N[C@@H](C)C(=O)N[C@@H](CCC(N)=O)C(=O)N[C@@H](CCCNC(=N)N)C(=O)N[C@@H](C)C(=O)N[C@@H](Cc1ccccc1)C(=O)N[C@H](C(=O)N[C@@H](CCC(=O)O)C(=O)N[C@@H](Cc1c[nH]c2ccccc12)C(=O)N[C@@H](CC(C)C)C(=O)N[C@@H](CC(C)C)C(=O)N[C@@H](C)C(=O)N[C@@H](CCC(N)=O)C(=O)N[C@@H](CCCCNC(=O)COCCOCCNC(=O)COCCOCCNC(=O)CC[C@H](NC(=O)CCCCCCCCCCCCCCCCCCC(=O)O)C(=O)O)C(N)=O)C(C)C [Compound 14] (H-Y[Aib]EGTFISDYSIELEKIAQRAFVEWLLAQK([AEEA-AEEA-γGlu-C20 diacid])-NH2)	> 10000	24	14
CC[C@H](C)[C@H](NC(=O)[C@H](Cc1ccccc1)NC(=O)[C@H](C)NC(=O)[C@H](CCCNC(=N)N)NC(=O)[C@H](CCC(N)=O)NC(=O)[C@H](C)NC(=O)[C@H](CCCCNC(=O)COCCOCCNC(=O)COCCOCCNC(=O)CN1CCN(C(=O)CCCCCCCCCCCCCCCCCCC(=O)O)CC1)NC(=O)[C@H](CCCCN)NC(=O)[C@H](CC(=O)O)NC(=O)[C@H](CC(C)C)NC(=O)[C@H](CCC(=O)O)NC(=O)[C@@H](NC(=O)[C@H](CO)NC(=O)[C@H](Cc1ccc(O)cc1)NC(=O)[C@H](CC(=O)O)NC(=O)[C@H](CO)NC(=O)[C@@H](NC(=O)[C@H](Cc1ccccc1)NC(=O)[C@@H](NC(=O)CNC(=O)[C@H](CCC(=O)O)NC(=O)C(C)(C)NC(=O)[C@@H](N)Cc1ccc(O)cc1)[C@@H](C)O)[C@@H](C)CC)[C@@H](C)CC)C(=O)N[C@@H](CCC(=O)O)C(=O)N[C@@H](Cc1c[nH]c2ccccc12)C(=O)N[C@@H](CC(C)C)C(=O)N[C@@H](CC(C)C)C(=O)N[C@@H](C)C(=O)N[C@@H](CCC(N)=O)C(=O)NCC(=O)N1CCC[C@H]1C(=O)N[C@@H](CO)C(=O)N[C@@H](CO)C(=O)NCC(=O)N[C@@H](C)C(=O)N1CCC[C@H]1C(=O)N1CCC[C@H]1C(=O)N1CCC[C@H]1C(=O)N[C@@H](CO)C(N)=O [Compound 19] (H-Y[Aib]EGTFISDYSIELDKK([AEEA-AEEA-X1])AQRAFIEWLLAQGPSSGAPPPS-NH2)	> 3000	6	5
CC[C@H](C)[C@H](NC(=O)[C@H](CO)NC(=O)[C@H](Cc1ccc(O)cc1)NC(=O)[C@H](CC(=O)O)NC(=O)[C@H](CO)NC(=O)[C@@H](NC(=O)[C@H](Cc1ccccc1)NC(=O)[C@@H](NC(=O)CNC(=O)[C@H](CCC(=O)O)NC(=O)C(C)(C)NC(=O)[C@@H](N)Cc1ccc(O)cc1)[C@@H](C)O)[C@@H](C)CC)C(=O)N[C@@H](CCC(=O)O)C(=O)N[C@@H](CC(C)C)C(=O)N[C@@H](CC(=O)O)C(=O)N[C@@H](CCCCN)C(=O)N[C@@H](CCCCNC(=O)COCCOCCNC(=O)COCCOCCNC(=O)CN1CCN(C(=O)CCCCCCCCCCCCCCCCCCC(=O)O)CC1)C(=O)N[C@@H](C)C(=O)N[C@@H](CCC(N)=O)C(=O)N[C@@H](CCCNC(=N)N)C(=O)N[C@@H](C)C(=O)N[C@@H](Cc1ccccc1)C(=O)N[C@H](C(=O)N[C@@H](CCC(=O)O)C(=O)N[C@@H](Cc1c[nH]c2ccccc12)C(=O)N[C@@H](CC(C)C)C(=O)N[C@@H](CC(C)C)C(=O)N[C@@H](C)C(=O)N[C@@H](CCC(N)=O)C(=O)NCC(=O)N1CCC[C@H]1C(=O)N[C@@H](CO)C(=O)N[C@@H](CO)C(=O)NCC(=O)N[C@@H](C)C(=O)N1CCC[C@H]1C(=O)N1CCC[C@H]1C(=O)N1CCC[C@H]1C(=O)N[C@@H](CO)C(N)=O)C(C)C [Compound 20] (H-Y[Aib]EGTFISDYSIELDKK([AEEA-AEEA-X1])AQRAFVEWLLAQGPSSGAPPPS-NH2)	> 3000	7	6

Reference: patent US12703729B2, “GIP agonist compounds and methods” (Zealand Pharma A/S, priority 2014, dated 2026)
